Among the test systems are 786-0 renal; ACHN renal; EKVX NSCLC; SK-MEL-2 melanoma; SK-OV-3 ovarian; SN12C renal; SW-620 colon; TK-10 renal; UACC-62 melanoma; MALME-3M melanoma.
Assay in all cases: NCI tumour cell line growth inhibition, 48 h

“And” between values parts separate entries of the source, which are not always exact repeats. Equal entries are not always repeated.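 A five-concentration, 48-hour dose response in 96-well plates underlies each endpoint, interpolated linearly between surrounding concentrations. GI50 is the concentration that inhibits growth by half. TGI is the concentration that stops growth completely.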

Turning to `O=C(O)c1c(Cl)c(Cl)c(Cl)c(Cl)c1-c1c2cc(I)c(=O)c(I)c-2oc2c(I)c(O)c(I)cc12`, the GI50 in the assay with 786-0 renal is 46.5 µM; in the assay with ACHN renal it was 54.8 µM; in the assay on EKVX NSCLC it was 63.5 µM; in the assay on SK-MEL-2 melanoma, 81.4 µM and 37 µM; in the assay on SK-OV-3 ovarian it was 32.4 µM; in the assay on SN12C renal, 75.5 µM and 32.6 µM. Further, the GI50 was 74.4 µM and 37.6 µM in the assay on SW-620 colon; 59 µM in the assay with TK-10 renal; 18.6 µM and 31.6 µM in the assay on UACC-62 melanoma. Moreover, the TGI is 123 µM with 786-0 renal; greater than 200 µM in the assay on ACHN renal; greater than 200 µM in the assay on EKVX NSCLC; 78.8 µM in the assay on SK-MEL-2 melanoma; 78.6 µM in the assay on SK-OV-3 ovarian; 103 µM in the assay with SN12C renal. Besides, the TGI with SW-620 colon is 79.1 µM; with TK-10 renal it was greater than 200 µM; with UACC-62 melanoma, 41.3 µM and 68.6 µM.

Regarding `Cc1ccc(C)c2sc3cc(=O)ccc-3nc12`, the TGI in the assay with 786-0 renal, in the assay with ACHN renal, in the assay on EKVX NSCLC, in the assay with SK-MEL-2 melanoma, in the assay on SK-OV-3 ovarian and with SN12C renal was greater than 100 µM in each case. Also, the values for the TGI in the assay with SW-620 colon, with TK-10 renal and in the assay on UACC-62 melanoma were greater than 100 µM, 66.8 µM and 33.6 µM, respectively.

With `CC1=C[C@H]2C[C@@]3(C)O[C@@H]([C@]4(C)CC[C@H]([C@@H](C)C(=O)O)OO4)CC3C(C)(C)[C@H]2CC1` (stereo partly specified), the TGI came out at 4.99 µM with 786-0 renal; 3.05 µM in the assay with ACHN renal; 3.67 µM in the assay with EKVX NSCLC; 2.22 µM in the assay with MALME-3M melanoma; 3.21 µM with SK-MEL-2 melanoma; 2.79 µM in the assay on SN12C renal. In addition, the values for the TGI in the assay with SW-620 colon and with TK-10 renal were 0.856 µM and 4.28 µM, respectively.

`C(=C1/CCCCC([n+]2ccccc2)=N1)/c1ccccc1`: the TGI in the assay with 786-0 renal, in the assay with ACHN renal, in the assay with EKVX NSCLC, with MALME-3M melanoma, in the assay with SK-MEL-2 melanoma and with SK-OV-3 ovarian was greater than 100 µM throughout. The TGI with SN12C renal, with SW-620 colon and with UACC-62 melanoma was greater than 100 µM throughout.

As to `COc1ccc2c(c1)[n+]([O-])c(-c1ccc(Cl)c(Cl)c1)c(N)[n+]2[O-]`, the TGI was greater than 100 µM with 786-0 renal; greater than 100 µM in the assay with ACHN renal; greater than 100 µM with EKVX NSCLC; 58.5 µM in the assay on MALME-3M melanoma; greater than 100 µM in the assay on SK-MEL-2 melanoma; greater than 100 µM in the assay on SK-OV-3 ovarian. The TGI with SN12C renal and in the assay with SW-620 colon was greater than 100 µM each time.

Consider `Cc1ccc(C)c(NC(=O)CCc2n[nH]c(=S)o2)c1`, for which the TGI with 786-0 renal, in the assay on ACHN renal, with EKVX NSCLC, in the assay on MALME-3M melanoma, in the assay with SN12C renal and in the assay with SW-620 colon was greater than 100 µM each time. In addition, the TGI with TK-10 renal and with UACC-62 melanoma was greater than 100 µM each time.

`COc1ccc(CNc2cnc3cc(N)ccc3n2)cc1OC`: the TGI in the assay with 786-0 renal, in the assay on ACHN renal, in the assay with EKVX NSCLC, in the assay with MALME-3M melanoma, in the assay on SK-MEL-2 melanoma and with SN12C renal was greater than 100 µM in each case. The TGI in the assay with SW-620 colon and in the assay with TK-10 renal was greater than 100 µM each time.

For `O=C(O)c1oc2ccc([N+](=O)[O-])c3c2c1CCC3`, the TGI in the assay on 786-0 renal, in the assay with ACHN renal, in the assay with EKVX NSCLC, in the assay with MALME-3M melanoma, in the assay on SK-MEL-2 melanoma and in the assay with SN12C renal was greater than 100 µM in each case. Besides, the TGI in the assay on SW-620 colon and in the assay on TK-10 renal was greater than 100 µM in each case.

As to `CCOC(=O)c1cc2cc([N+](=O)[O-])ccc2oc1=O`, the TGI in the assay on 786-0 renal, in the assay with ACHN renal, with EKVX NSCLC, in the assay with MALME-3M melanoma, with SN12C renal and in the assay with SW-620 colon was greater than 100 µM each time. Also, the TGI in the assay on UACC-62 melanoma was greater than 100 µM.

Regarding `CC1=NN(C(=O)Cc2ccccc2)C(=O)/C1=C\c1cccc(O)c1`, the TGI in the assay with 786-0 renal, in the assay on ACHN renal, in the assay on EKVX NSCLC, in the assay on MALME-3M melanoma, in the assay on SK-MEL-2 melanoma and in the assay on SN12C renal was greater than 100 µM throughout. Further, the TGI with SW-620 colon and in the assay on TK-10 renal was greater than 100 µM throughout.

On to `Cc1ccc(NC(=O)CCC(=O)C(C#N)c2ccc(Cl)cc2)cc1C` (stereo unspecified), for which the TGI in the assay with 786-0 renal, in the assay with ACHN renal, in the assay on EKVX NSCLC, with MALME-3M melanoma, in the assay with SK-MEL-2 melanoma and in the assay with SN12C renal was greater than 100 µM each time. In addition, the TGI in the assay with SW-620 colon, with TK-10 renal and in the assay with UACC-62 melanoma was greater than 100 µM throughout.

Consider `C/C(=N\NC(=S)Nc1ccc([N+](=O)[O-])cc1S(=O)(=O)O)c1ccccn1`, for which the TGI with 786-0 renal is greater than 100 µM; in the assay on ACHN renal it was greater than 100 µM; in the assay on EKVX NSCLC it was greater than 100 µM; in the assay on MALME-3M melanoma, greater than 100 µM; in the assay on SK-MEL-2 melanoma it was 91.3 µM; in the assay with SN12C renal it was greater than 100 µM. Also, the TGI with SW-620 colon is 56.5 µM; with TK-10 renal, greater than 100 µM; in the assay with UACC-62 melanoma, greater than 100 µM.

Take `CC(C)c1cc2c(O)c(c1)Cc1cc(C(C)C)cc(c1O)Cc1cc(C(C)C)cc(c1O)Cc1cc(C(C)C)cc(c1O)Cc1cc(C(C)C)cc(c1O)Cc1cc(C(C)C)cc(c1O)C2`: the TGI in the assay with 786-0 renal, in the assay with ACHN renal, with EKVX NSCLC, in the assay on MALME-3M melanoma, in the assay with SK-MEL-2 melanoma and in the assay on SN12C renal was greater than 100 µM throughout. Moreover, the TGI with SW-620 colon, with TK-10 renal and in the assay with UACC-62 melanoma was greater than 100 µM in each case.

On to `NC(=O)c1ccc(-c2c3ccccc3cc3c2ccc2ccccc23)cc1`, for which the GI50 in the assay on 786-0 renal was 3.64 µM; in the assay on ACHN renal it was 6.62 µM; in the assay on EKVX NSCLC, 9.35 µM; in the assay with MALME-3M melanoma, 4.99 µM; in the assay on SK-OV-3 ovarian it was 4.02 µM; in the assay with SW-620 colon, 2.56 µM. Further, the GI50 in the assay on UACC-62 melanoma was 4.32 µM. Moreover, the TGI was 14.8 µM in the assay with 786-0 renal; 62 µM in the assay on ACHN renal; greater than 100 µM in the assay with EKVX NSCLC; 54 µM in the assay with MALME-3M melanoma; 24.2 µM in the assay on SK-OV-3 ovarian; 19.7 µM with SW-620 colon. The TGI with UACC-62 melanoma is 40.2 µM.

On to `COc1cc(C(N)=O)c(OC)c(OC)c1OC`, for which the TGI in the assay with 786-0 renal, with ACHN renal, with EKVX NSCLC, in the assay on SK-MEL-2 melanoma, in the assay with SK-OV-3 ovarian and in the assay with SN12C renal was greater than 100 µM throughout. Also, the TGI with SW-620 colon, in the assay with TK-10 renal and in the assay on UACC-62 melanoma was greater than 100 µM each time.

The record behind these values is PubChem BioAssay (NCI).
